From the NIST ThermoML archive (doi:10.1016/j.jct.2018.08.005)
Numbers after ± are expanded uncertainties.

Assay: xn = mol fraction of the nth substance listed
Details: Liquid; for speed of sound: Frequency=3 MHz, Pulse-echo method; for mass density: Vibrating tube method

CCOC(F)(C(F)(F)C(F)(F)C(F)(F)F)C(F)(C(F)(F)F)C(F)(F)F (stereo not drawn) [2-trifluoromethyl-3-ethoxydodecafluorohexane] + CC(C)OC(C)C
Details | mass density, x1 = 0.25 [kg/m3] | mass density, x1 = 0.375 [kg/m3] | mass density, x1 = 0.5 [kg/m3] | mass density, x1 = 0.625 [kg/m3] | mass density, x1 = 0.75 [kg/m3] | speed of sound, x1 = 0.25 [m/s] | speed of sound, x1 = 0.375 [m/s] | speed of sound, x1 = 0.5 [m/s] | speed of sound, x1 = 0.625 [m/s] | speed of sound, x1 = 0.75 [m/s]
293.15 K, 80000 kPa | 1150.2 ± 1 | 1286.4 ± 1.2 | 1406.1 ± 1.6 | 1514.7 ± 2 | 1606.3 ± 2.3 | – | – | 1081.1 ± 2.2 | 1056.3 ± 2.2 | 1029.1 ± 2.2
293.15 K, 90000 kPa | 1158.4 ± 1 | 1295.5 ± 1.4 | 1416 ± 1.8 | 1525.1 ± 2.2 | 1617.1 ± 2.6 | – | – | – | – | –
293.15 K, 100000 kPa | 1166.2 ± 1.1 | 1304.3 ± 1.5 | 1425.3 ± 2 | 1535 ± 2.5 | 1627.3 ± 2.9 | 1254 ± 2.2 | 1190.8 ± 2.2 | 1143 ± 2.2 | 1116.9 ± 2.2 | 1088.5 ± 2.2
293.15 K, 110000 kPa | 1173.5 ± 1.1 | 1312.4 ± 1.7 | 1434.1 ± 2.2 | 1544.3 ± 2.7 | 1637.1 ± 3.2 | – | – | – | – | –
293.15 K, 120000 kPa | 1180.7 ± 1.2 | 1320.3 ± 1.8 | 1442.6 ± 2.4 | 1553.2 ± 3 | 1646.4 ± 3.4 | – | – | – | – | –
293.15 K, 130000 kPa | 1187.4 ± 1.3 | 1327.8 ± 2 | 1450.7 ± 2.6 | 1561.8 ± 3.2 | 1655.3 ± 3.7 | – | – | – | – | –
293.15 K, 140000 kPa | 1193.8 ± 1.4 | 1335.1 ± 2.1 | 1458.3 ± 2.8 | 1569.9 ± 3.5 | 1663.8 ± 4 | – | – | – | – | –
303.15 K, 100 kPa | 1038.3 ± 0.8 | 1161.8 ± 0.8 | 1271.6 ± 0.8 | 1372.4 ± 0.8 | 1458.7 ± 0.8 | 763.8 ± 2.2 | – | 687.9 ± 2.2 | 670.9 ± 2.2 | 656 ± 2.2
303.15 K, 10000 kPa | 1057.2 ± 0.8 | 1183 ± 0.8 | 1294.5 ± 0.8 | 1396.6 ± 0.8 | 1483.7 ± 0.9 | – | – | – | – | –
303.15 K, 20000 kPa | 1073.6 ± 0.8 | – | – | – | – | 898.1 ± 2.2 | 848.7 ± 2.2 | 812.7 ± 2.2 | 793.7 ± 2.2 | 773.5 ± 2.2
